# Results: article PMC6891475, “Synthesis and Antiproliferative Evaluation of Novel Hybrids of Dehydroabietic Acid Bearing 1,2,3-Triazole Moiety” (Molecules, 2019)
# How the values were obtained:
# [1] = system: human nasopharyngeal carcinoma cell (CNE-2); assay: MTT antiproliferative assay, CNE-2; type: cell-based
# Protocol: (§1) The antiproliferative activities of the 16 library members were tested against four human cancer cell lines including human nasopharyngeal carcinoma cell (CNE-2), human liver cancer cell (HepG2), human hepatocellular carcinoma cell (BEL-7402), human cervical cancer cells (HeLa), and human normal liver cell (HL-7702) using MTT assay according the reported literature method.
# (§2) All the compounds (3a–p) were evaluated for their in vitro cytotoxicity against the following human cancer cell lines including CNE-2, HepG2, BEL-7402, Hela and normal liver cell HL-7702 by MTT assay. The cell lines were plated in 96-well plates at density of 5×10^3 cells/well and maintained at 37 °C with 5% CO2. The target compounds 3a–p dissolved in DMSO and further dilutions were made with DMEM, with cisplatin as the positive control. The concentration of the compounds used were 0.8, 4, 20, 100 μM. After the treatment of another 48 h and 72 h with different concentration of the samples (0.8, 4, 20, 100 μM), Therewith, 20 μL of MTT (5 mg/mL) was added and incubated for about 4 h. The medium was thrown away and the purple formazan precipitations were dissolved in 150 μL DMSO. The O. D. Value was measured at 490 nm in an enzyme labeling instrument.
# [2] = system: human liver cancer cell (HepG2); assay: MTT antiproliferative assay, HepG2; type: cell-based
# Protocol: as §1, §2
# [3] = system: human hepatocellular carcinoma cell (BEL-7402); assay: MTT antiproliferative assay, BEL-7402; type: cell-based
# Protocol: as §1, §2
# [4] = system: human cervical cancer cells (HeLa); assay: MTT antiproliferative assay, HeLa; type: cell-based; conditions: mean ± SD from three independent experiments
# Protocol: as §1, §2
# [5] = system: human normal liver cell (HL-7702); assay: MTT cytotoxicity assay, HL-7702 normal cells; type: cell-based; conditions: for IC50: mean ± SD from three independent experiments; for cytotoxicity on the human normal liver cell (HL-7702), in words: qualitative statement
# Protocol: as §1, §2
# [6] = mean ± SD from three independent experiments
# [7] = Homo sapiens, CNE-2, mean ± SD from three independent experiments
# [8] = Homo sapiens, HepG2, mean ± SD from three independent experiments
# [9] = Homo sapiens, Bel-7402, mean ± SD from three independent experiments
# [10] = Homo sapiens, L02, normal liver cell
"IC50 [1, 7]","IC50 [2, 8]","IC50 [3, 9]",IC50 ([4]; Homo sapiens),melting point,SMILES,"IC50 [1, 6]","IC50 [2, 6]","IC50 [3, 6]",IC50 [4],IC50 ([5]; normal liver cell),"IC50 [5, 10]","cytotoxicity on the human normal liver cell (HL-7702), in words [5]"
,,,,,"N.N.[Cl][Pt][Cl] [Cisplatin, cisplatin, reference compound]",8.75 ± 0.24 µM,6.42 ± 0.18 µM,12.7 ± 0.33 µM,1.94 ± 0.2 µM,20.8 ± 0.83 µM,,
33.4 ± 0.33 µM,> 100 µM,36.4 ± 70 µM,67.88 ± 0.56 µM,181 to 183.4 °C,"CC(C)c1ccc2c(c1)CCC1[C@](C)(C(=O)OCc3cn(Cc4ccccc4)nn3)CCC[C@]21C (stereo partly shown) [Compound 3a, (1-benzyl-1H-1,2,3-triazole-4-yl)dehydroabietic acid methyl ester]",,,,,,> 100 µM,
21.4 ± 0.52 µM,25.9 ± 0.27 µM,18.6 ± 0.82 µM,17.8 ± 0.31 µM,122.4 to 125.8 °C,"CC(C)c1ccc2c(c1)CCC1[C@](C)(C(=O)OCc3cn(Cc4ccccc4F)nn3)CCC[C@]21C (stereo partly shown) [Compound 3b, [1-(2-fluorobenzyl)-1H-1,2,3-triazole-4-yl]dehydroabietic acid methyl ester]",,,,,,> 100 µM,
10.9 ± 0.21 µM,5.9 ± 0.41 µM,16.72 ± 0.06 µM,20.1 ± 0.54 µM,175.7 to 178.3 °C,"CC(C)c1ccc2c(c1)CCC1[C@](C)(C(=O)OCc3cn(Cc4cccc(F)c4)nn3)CCC[C@]21C (stereo partly shown) [Compound 3c, [1-(3-fluorobenzyl)-1H-1,2,3-triazole-4-yl]dehydroabietic acid methyl ester]",,,,,,> 100 µM,lower cytotoxicity
12.2 ± 0.33 µM,20.6 ± 0.09 µM,14.8 µM,22.3 ± 0.35 µM,183 to 186.3 °C,"CC(C)c1ccc2c(c1)CCC1[C@](C)(C(=O)OCc3cn(Cc4ccc(F)cc4)nn3)CCC[C@]21C (stereo partly shown) [Compound 3d, [1-(4-fluorobenzyl)-1H-1,2,3-triazole-4-yl]dehydroabietic acid methyl ester]",,,,,,> 100 µM,
74.88 ± 0.14 µM,45.08 ± 0.33 µM,25.1 ± 0.32 µM,44.28 ± 0.43 µM,80.6 to 84.3 °C,"CC(C)c1ccc2c(c1)CCC1[C@](C)(C(=O)OCc3cn(Cc4ccccc4Cl)nn3)CCC[C@]21C (stereo partly shown) [Compound 3e, [1-(2-chlorobenzyl)-1H-1,2,3-triazole-4-yl]dehydroabietic acid methyl ester]",,,,,,> 100 µM,
59.03 ± 0.28 µM,22.3 ± 0.35 µM,26.09 ± 0.15 µM,53.78 ± 0.32 µM,153.2 to 155.5 °C,"CC(C)c1ccc2c(c1)CCC1[C@](C)(C(=O)OCc3cn(Cc4cccc(Cl)c4)nn3)CCC[C@]21C (stereo partly shown) [Compound 3f, [1-(3-chlorobenzyl)-1H-1,2,3-triazole-4-yl]dehydroabietic acid methyl ester]",,,,,,> 100 µM,
60.7 ± 66 µM,> 100 µM,38 ± 0.48 µM,> 100 µM,176.9 to 179.2 °C,"CC(C)c1ccc2c(c1)CCC1[C@](C)(C(=O)OCc3cn(Cc4ccc(Cl)cc4)nn3)CCC[C@]21C (stereo partly shown) [Compound 3g, [1-(4-chlorobenzyl)-1H-1,2,3-triazole-4-yl]dehydroabietic acid methyl ester]",,,,,,> 100 µM,
48.3 ± 0.27 µM,35.42 ± 0.21 µM,27.3 ± 0.36 µM,25.9 ± 0.2 µM,95.1 to 97.3 °C,"CC(C)c1ccc2c(c1)CCC1[C@](C)(C(=O)OCc3cn(Cc4ccccc4Br)nn3)CCC[C@]21C (stereo partly shown) [Compound 3h, [1-(2-bromobenzyl)-1H-1,2,3-triazole-4-yl]dehydroabietic acid methyl ester]",,,,,,> 100 µM,
44.14 ± 0.22 µM,40.7 ± 0.62 µM,36.88 ± 0.23 µM,56.08 ± 0.36 µM,146.1 to 148 °C,"CC(C)c1ccc2c(c1)CCC1[C@](C)(C(=O)OCc3cn(Cc4cccc(Br)c4)nn3)CCC[C@]21C (stereo partly shown) [Compound 3i, [1-(3-bromobenzyl)-1H-1,2,3-triazole-4-yl]dehydroabietic acid methyl ester]",,,,,,> 100 µM,
> 100 µM,23.4 ± 0.32 µM,14.5 ± 0.62 µM,43.18 ± 0.22 µM,172.5 to 174 °C,"CC(C)c1ccc2c(c1)CCC1[C@](C)(C(=O)OCc3cn(Cc4ccc(Br)cc4)nn3)CCC[C@]21C (stereo partly shown) [Compound 3j, [1-(4-bromobenzyl)-1H-1,2,3-triazole-4-yl]dehydroabietic acid methyl ester]",,,,,,> 100 µM,
44.9 ± 0.32 µM,6.25 ± 0.37 µM,18.6 ± 0.26 µM,> 100 µM,119.7 to 122.2 °C,"CC(C)c1ccc2c(c1)CCC1[C@](C)(C(=O)OCc3cn(Cc4ccccc4[N+](=O)[O-])nn3)CCC[C@]21C (stereo partly shown) [Compound 3k, [1-(2-nitrobenzyl)-1H-1,2,3-triazole-4-yl]dehydroabietic acid methyl ester]",,,,,,> 100 µM,lower cytotoxicity
11.5 ± 0.18 µM,15.8 ± 0.64 µM,15.4 ± 0.51 µM,67.37 ± 0.33 µM,128.5 to 132.3 °C,"CC(C)c1ccc2c(c1)CCC1[C@](C)(C(=O)OCc3cn(Cc4cccc([N+](=O)[O-])c4)nn3)CCC[C@]21C (stereo partly shown) [Compound 3l, [1-(3-nitrobenzyl)-1H-1,2,3-triazole-4-yl]dehydroabietic acid methyl ester]",,,,,,> 100 µM,
19.6 ± 0.38 µM,> 100 µM,22.81 ± 0.22 µM,22.5 ± 0.35 µM,173.9 to 176.7 °C,"CC(C)c1ccc2c(c1)CCC1[C@](C)(C(=O)OCc3cn(Cc4ccc([N+](=O)[O-])cc4)nn3)CCC[C@]21C (stereo partly shown) [Compound 3m, [1-(4-nitrobenzyl)-1H-1,2,3-triazole-4-yl]dehydroabietic acid methyl ester]",,,,,,> 100 µM,
> 100 µM,60.18 ± 0.39 µM,23.6 ± 0.44 µM,25.3 ± 0.81 µM,130.7 to 132.8 °C,"Cc1cccc(Cn2cc(COC(=O)[C@]3(C)CCC[C@]4(C)c5ccc(C(C)C)cc5CCC34)nn2)c1 (stereo partly shown) [Compound 3n, [1-(3-methylbenzyl)-1H-1,2,3-triazole-4-yl]dehydroabietic acid methyl ester]",,,,,,> 100 µM,
> 100 µM,51.78 ± 0.43 µM,41.9 ± 0.72 µM,42.51 ± 0.37 µM,160.4 to 162 °C,"Cc1ccc(Cn2cc(COC(=O)[C@]3(C)CCC[C@]4(C)c5ccc(C(C)C)cc5CCC34)nn2)cc1 (stereo partly shown) [Compound 3o, [1-(4-methylbenzyl)-1H-1,2,3-triazole-4-yl]dehydroabietic acid methyl ester]",,,,,,> 100 µM,
80.98 ± 0.78 µM,> 100 µM,25.03 ± 0.22 µM,24.66 ± 0.16 µM,106.5 to 108 °C,"COc1cccc(Cn2cc(COC(=O)[C@]3(C)CCC[C@]4(C)c5ccc(C(C)C)cc5CCC34)nn2)c1 (stereo partly shown) [Compound 3p, [1-(3-methoxybenzyl)-1H-1,2,3-triazole-4-yl]dehydroabietic acid methyl ester]",,,,,,> 100 µM,
,80.4 ± 0.84 µM,,37.4 ± 0.64 µM,,"CC(C)c1ccc2c(c1)CC[C@H]1[C@](C)(C(=O)O)CCC[C@]21C [DHAA, dehydroabietic acid]",,,,,,> 100 µM,
